Measurements as given in ChEMBL document CHEMBL5154678, “Lysine Stapling Screening Provides Stable and Low Toxic Cationic Antimicrobial Peptides Combating Multidrug-Resistant Bacteria In Vitro and In Vivo” (J Med Chem, 2022).
≈ marks a conversion by molar mass, not a printed value. Starred links: 1 amine or outer side, 2 acyl side, 3 side chain; linkers in the order of their positions; H or OH if unused. Positions of bridges follow the written chain, without caps; N, C: chain ends. Non-standard residues stand in square brackets, D forms with d. Residues, ends and D or L forms follow the SMILES beside them. X1 = O=C([C@H](CCCCNCC=[*:3])N[*:1])[*:2]

Assays:
Erythrocyte = experiment: Hemolytic activity against human RBC assessed as concentration required to cause 10% hemolysis; assay type: toxicity, cell-based
Escherichia coli [1] = experiment: Antibacterial activity against Escherichia coli BNCC 133264 assessed as inhibition of bacterial growth incubated for 16 hrs by broth microdilution method; assay type: functional
Pseudomonas aeruginosa = experiment: Antibacterial activity against Pseudomonas aeruginosa BNCC 125486 assessed as inhibition of bacterial growth incubated for 16 hrs by broth microdilution method; assay type: functional
Staphylococcus aureus [2] = experiment: Antibacterial activity against Staphylococcus aureus BNCC 186335 assessed as inhibition of bacterial growth incubated for 16 hrs by broth microdilution method; assay type: functional
Listeria monocytogenes = experiment: Antibacterial activity against Listeria monocytogenes assessed as inhibition of bacterial growth incubated for 16 hrs by broth microdilution method; assay type: functional
Staphylococcus aureus [3] = experiment: Antibacterial activity against methicillin-resistant Staphylococcus aureus assessed as inhibition of bacterial growth incubated for 16 hrs by broth microdilution method; assay type: functional
HEK-293T = experiment: Cytotoxicity against human HEK293T cells assessed as cell survival rate at 8 to 128 Ug/ml incubated for 24 hrs by MTT assay relative to control; assay type: toxicity, cell-based; details: dose 8-128 µg/ml
Escherichia coli [4] = experiment: Antibacterial activity against cephalosporin-resistant Escherichia coli BNCC 133264 assessed as inhibition of bacterial growth incubated for 16 hrs by broth microdilution method; assay type: functional

Row | SMILES | MHC (Erythrocyte) [µg/mL] | MIC (Escherichia coli [1]) [µg/mL] | MIC (Pseudomonas aeruginosa) [µg/mL] | MIC (Staphylococcus aureus [2]) [µg/mL] | MIC (Listeria monocytogenes) [µg/mL] | MIC (Staphylococcus aureus [3]) [µg/mL] | Activity (HEK-293T) | MIC (Escherichia coli [4]) [µg/mL]
1 | CC[C@H](C)[C@H](NC(=O)[C@H](CCCCN)NC(=O)[C@H](CCCNC(=N)N)NC(=O)[C@@H](NC(=O)[C@H](CC(C)C)NC(=O)[C@H](CCCCN)NC(=O)[C@H](CC(C)C)NC(=O)[C@@H](NC(=O)[C@H](CCCCN)NC(=O)CNC(=O)[C@H](Cc1ccccc1)NC(=O)[C@@H](N)Cc1ccccc1)C(C)C)[C@@H](C)CC)C(=O)N[C@@H](Cc1ccccc1)C(N)=O (H-FFGKVLKLIRKIF-NH2) | 16 | > 128 | > 128 | 64 (≈ 39.8 µM) | 8 (≈ 4.97 µM) | 64 (≈ 39.8 µM) |  | 
2 | CC[C@H](C)[C@H](NC(=O)[C@@H]1CCCCNC/C=C/CNCCCC[C@H](NC(=O)[C@H](CC(C)C)NC(=O)[C@@H](NC(=O)[C@H](CCCCN)NC(=O)CNC(=O)[C@H](Cc2ccccc2)NC(=O)[C@@H](N)Cc2ccccc2)C(C)C)C(=O)N[C@@H](CC(C)C)C(=O)N[C@@H]([C@@H](C)CC)C(=O)N[C@@H](CCCNC(=N)N)C(=O)N1)C(=O)N[C@@H](Cc1ccccc1)C(N)=O (H-FFGKVL[X1]LIR[X1]IF-NH2; staple (E) 7-11) | 16 | 128 (≈ 77.1 µM) | > 128 | 16 (≈ 9.64 µM) | 8 (≈ 4.82 µM) | 32 (≈ 19.3 µM) | Toxic | 128 (≈ 77.1 µM)
3 | CC[C@H](C)[C@H](NC(=O)[C@H](CCCCN)NC(=O)[C@@H]1CCCN1C(=O)[C@@H](NC(=O)[C@H](CC(C)C)NC(=O)[C@H](CCCCN)NC(=O)[C@H](CC(C)C)NC(=O)[C@@H](NC(=O)[C@H](CO)NC(=O)CNC(=O)[C@H](Cc1ccccc1)NC(=O)[C@@H](N)Cc1ccccc1)C(C)C)[C@@H](C)CC)C(=O)N[C@@H](CC(C)C)C(N)=O (H-FFGSVLKLIPKIL-NH2) | 64 | 64 (≈ 43.4 µM) | > 128 | 2 (≈ 1.36 µM) | 2 (≈ 1.36 µM) | 2 (≈ 1.36 µM) |  | 32 (≈ 21.7 µM)
4 | CC[C@H](C)[C@H](NC(=O)[C@@H]1CCCCNC/C=C/CNCCCC[C@H](NC(=O)[C@H](CC(C)C)NC(=O)[C@@H](NC(=O)[C@H](CO)NC(=O)CNC(=O)[C@H](Cc2ccccc2)NC(=O)[C@@H](N)Cc2ccccc2)C(C)C)C(=O)N[C@@H](CC(C)C)C(=O)N[C@@H]([C@@H](C)CC)C(=O)N2CCC[C@H]2C(=O)N1)C(=O)N[C@@H](CC(C)C)C(N)=O (H-FFGSVL[X1]LIP[X1]IL-NH2; staple (E) 7-11) | 32 | 64 (≈ 41.9 µM) | > 128 | 4 (≈ 2.62 µM) | 4 (≈ 2.62 µM) | 4 (≈ 2.62 µM) | Toxic | 128 (≈ 83.9 µM)
5 | CC(C)C[C@@H]1NC(=O)[C@H](C)NC(=O)[C@@H](NC(=O)[C@H](C)NC(=O)[C@H](C)NC(=O)CNC(=O)[C@H](CCCCN)NC(=O)[C@H](CC(C)C)NC(=O)[C@H](CC(C)C)NC(=O)[C@H](CC(=O)O)NC(=O)[C@H](CCCCN)NC(=O)[C@H](Cc2ccccc2)NC(=O)CN)CCCCNC/C=C/CNCCCC[C@@H](C(=O)N[C@H](C(=O)N[C@H](C(=O)N[C@@H](CC(C)C)C(=O)N[C@@H](Cc2ccccc2)C(N)=O)C(C)C)[C@@H](C)O)NC(=O)[C@H](C(C)C)NC1=O (H-GFKDLLKGAA[X1]ALV[X1]TVLF-NH2; staple (E) 11-15) | 32 | 8 (≈ 3.86 µM) | 128 (≈ 61.8 µM) | 2 (≈ 0.966 µM) | 4 (≈ 1.93 µM) | 8 (≈ 3.86 µM) | Toxic | 16 (≈ 7.73 µM)
6 | CC(C)C[C@H](NC(=O)[C@H](C)NC(=O)[C@@H]1CCCCNC/C=C/CNCCCC[C@H](NC(=O)[C@H](CC(C)C)NC(=O)[C@H](CC(C)C)NC(=O)[C@H](CC(=O)O)NC(=O)[C@H](CCCCN)NC(=O)[C@H](Cc2ccccc2)NC(=O)CN)C(=O)NCC(=O)N[C@@H](C)C(=O)N[C@@H](C)C(=O)N1)C(=O)N[C@H](C(=O)N[C@@H](CCCCN)C(=O)N[C@H](C(=O)N[C@H](C(=O)N[C@@H](CC(C)C)C(=O)N[C@@H](Cc1ccccc1)C(N)=O)C(C)C)[C@@H](C)O)C(C)C (H-GFKDLL[X1]GAA[X1]ALVKTVLF-NH2; staple (E) 7-11) | 32 | 16 (≈ 7.73 µM) | 32 (≈ 15.5 µM) | 2 (≈ 0.966 µM) | 8 (≈ 3.86 µM) | 8 (≈ 3.86 µM) |  | 32 (≈ 15.5 µM)
7 | CC(C)C[C@H](NC(=O)[C@H](C)NC(=O)[C@H](CCCCN)NC(=O)[C@H](C)NC(=O)[C@H](C)NC(=O)CNC(=O)[C@@H]1CCCCNC/C=C/CNCCCC[C@H](NC(=O)[C@H](Cc2ccccc2)NC(=O)CN)C(=O)N[C@@H](CC(=O)O)C(=O)N[C@@H](CC(C)C)C(=O)N[C@@H](CC(C)C)C(=O)N1)C(=O)N[C@H](C(=O)N[C@@H](CCCCN)C(=O)N[C@H](C(=O)N[C@H](C(=O)N[C@@H](CC(C)C)C(=O)N[C@@H](Cc1ccccc1)C(N)=O)C(C)C)[C@@H](C)O)C(C)C (H-GF[X1]DLL[X1]GAAKALVKTVLF-NH2; staple (E) 3-7) | 32 | 16 (≈ 7.73 µM) | 128 (≈ 61.8 µM) | 4 (≈ 1.93 µM) | 16 (≈ 7.73 µM) | 16 (≈ 7.73 µM) | Toxic | 32 (≈ 15.5 µM)
8 | CC[C@H](C)[C@H](NC(=O)[C@H](CCCCN)NC(=O)[C@H](CC(N)=O)NC(=O)[C@H](CC(C)C)NC(=O)[C@@H](NC(=O)[C@H](CCCCN)NC(=O)[C@@H]1CCCN1)[C@@H](C)CC)C(=O)N[C@@H](CC(C)C)C(=O)NCC(=O)N[C@@H](CCCCN)C(=O)N[C@H](C(=O)N[C@@H](CC(C)C)C(=O)N[C@@H](CCCNC(=N)N)C(=O)N[C@@H](CC(C)C)C(=O)N[C@@H](C)C(=O)N[C@@H](C)C(=O)N[C@@H](C)C(=O)N[C@@H](Cc1ccccc1)C(=O)N[C@@H](CCCCN)C(N)=O)[C@@H](C)CC (H-PKILNKILGKILRLAAAFK-NH2) | 16 | 4 (≈ 1.9 µM) | 4 (≈ 1.9 µM) | 2 (≈ 0.949 µM) | 4 (≈ 1.9 µM) | 4 (≈ 1.9 µM) |  | 4 (≈ 1.9 µM)
9 | CC[C@H](C)[C@@H]1NC(=O)[C@@H](NC(=O)[C@H](CC(N)=O)NC(=O)[C@H](CC(C)C)NC(=O)[C@@H](NC(=O)[C@H](CCCCN)NC(=O)[C@@H]2CCCN2)[C@@H](C)CC)CCCCNC/C=C/CNCCCC[C@@H](C(=O)N[C@H](C(=O)N[C@@H](CC(C)C)C(=O)N[C@@H](CCCNC(=N)N)C(=O)N[C@@H](CC(C)C)C(=O)N[C@@H](C)C(=O)N[C@@H](C)C(=O)N[C@@H](C)C(=O)N[C@@H](Cc2ccccc2)C(=O)N[C@@H](CCCCN)C(N)=O)[C@@H](C)CC)NC(=O)CNC(=O)[C@H](CC(C)C)NC1=O (H-PKILN[X1]ILG[X1]ILRLAAAFK-NH2; staple (E) 6-10) | 16 | 4 (≈ 1.85 µM) | 16 (≈ 7.41 µM) | 2 (≈ 0.926 µM) | 2 (≈ 0.926 µM) | 4 (≈ 1.85 µM) | Non-Toxic | 8 (≈ 3.71 µM)
10 | CC[C@H](C)[C@H](NC(=O)[C@@H]1CCCCNC/C=C/CNCCCC[C@H](NC(=O)[C@@H]2CCCN2)C(=O)N[C@@H]([C@@H](C)CC)C(=O)N[C@@H](CC(C)C)C(=O)N[C@@H](CC(N)=O)C(=O)N1)C(=O)N[C@@H](CC(C)C)C(=O)NCC(=O)N[C@@H](CCCCN)C(=O)N[C@H](C(=O)N[C@@H](CC(C)C)C(=O)N[C@@H](CCCNC(=N)N)C(=O)N[C@@H](CC(C)C)C(=O)N[C@@H](C)C(=O)N[C@@H](C)C(=O)N[C@@H](C)C(=O)N[C@@H](Cc1ccccc1)C(=O)N[C@@H](CCCCN)C(N)=O)[C@@H](C)CC (H-P[X1]ILN[X1]ILGKILRLAAAFK-NH2; staple (E) 2-6) | 16 | 16 (≈ 7.41 µM) | 128 (≈ 59.3 µM) | 4 (≈ 1.85 µM) | 4 (≈ 1.85 µM) | 4 (≈ 1.85 µM) | Toxic | 16 (≈ 7.41 µM)
11 | CCN1CCN(C(=O)N[C@@H](C(=O)N[C@@H]2C(=O)N3C(C(=O)[O-])=C(CSc4nnnn4C)CS[C@H]23)c2ccc(O)cc2)C(=O)C1=O.[Na+] [CEFOPERAZONE SODIUM] |  | 0.125 | 4 | 0.5 | 8 | > 128 |  | > 128
12 | CN[C@H](CC(C)C)C(=O)N[C@H]1C(=O)N[C@@H](CC(N)=O)C(=O)N[C@H]2C(=O)N[C@H]3C(=O)N[C@H](C(=O)N[C@H](C(=O)O)c4cc(O)cc(O)c4-c4cc3ccc4O)[C@H](O)c3ccc(c(Cl)c3)Oc3cc2cc(c3O[C@@H]2O[C@H](CO)[C@@H](O)[C@H](O)[C@H]2O[C@H]2C[C@](C)(N)[C@H](O)[C@H](C)O2)Oc2ccc(cc2Cl)[C@H]1O [VANCOMYCIN] |  | > 128 | > 128 |  |  |  |  | > 128
